Measured values from patent publication US20230085307A1, “PYRIDAZINONE COMPOUND AND HERBICIDE” (NISSAN CHEMICAL CORPORATION, priority 2019, published 2023).

Tests used:
southern crabgrass = test: Test Example 4: herbicidal effect by soil treatment (Table 19, symbol F); assay type: in vivo, southern crabgrass (Digitaria ciliaris); settings: for herbicidal effect rating, F: southern crabgrass: amount of applied herbicide 320 g/ha
Method in brief: (§1)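 Step 1: sow seeds in sterilized diluvial soil, cover ~1.5 cm. Step 2: spray diluted emulsion onto soil surface at predetermined rate. Step 3: greenhouse, 25–30° C, three weeks. Step 4: grade effect on each plant by earlier criteria.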

wild oat = test: Test Example 5: herbicidal effect by foliage application, plastic box (Table 20, symbol I); assay type: in vivo, wild oat (Avena fatua); settings: foliage application, three weeks after application; for herbicidal effect grade, I: wild oat: 320 g/ha; for I: wild oat, herbicidal effect: AAH 320 g/ha
Method in brief: (§2)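 Foliar spray test: emulsion formulation diluted in water to a set application rate, sprayed onto 14-day-old plants raised in diluvial soil at 25° C to 30° C under glass. Both herbicidal effect and crop effect rated visually three weeks later.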

barnyard grass [1] = test: Test Example 4: herbicidal effect by soil treatment (Table 19, symbol H); assay type: in vivo, barnyard grass (Echinochloa crus-galli); settings: for herbicidal effect rating, H: barnyard grass: amount of applied herbicide 320 g/ha
Method in brief: as §1

green foxtail = test: Test Example 4: herbicidal effect by soil treatment (Table 19, symbol G); assay type: in vivo, green foxtail (Setaria viridis); settings: for herbicidal effect rating, G: green foxtail: amount of applied herbicide 320 g/ha
Method in brief: as §1

late watergrass = test: Test Example 2: herbicidal activity, application during weed generation under submerged conditions (Table 17, symbol A); assay type: in vivo, late watergrass (Echinochloa oryzicola); settings: AAH 320 g/ha; application during weed generation, submerged conditions
Method in brief: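 Effect on each weed is rated three weeks post-treatment, using the same scoring criteria as the preceding test. Plants grow from mixed-sown seed in flooded alluvial soil (4 cm water) at 25° C. to 30° C., and are treated at one to two leaves with diluted emulsion dropped onto the water.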

Italian ryegrass = test: Test Example 5: herbicidal effect by foliage application, plastic box (Table 20, symbol K); assay type: in vivo, Italian ryegrass (Lolium multiflorum); settings: foliage application, three weeks after application; for herbicidal effect grade, K: Italian ryegrass: 320 g/ha; for K: Italian ryegrass, herbicidal effect: AAH 320 g/ha
Method in brief: as §2

Chinese sprangletop = test: Test Example 3: herbicidal effect by foliage application, Wagner pot (Table 18, symbol D); assay type: in vivo, chinese sprangletop (Leptochloa chinensis); settings: 320 g/ha
Method in brief: (§3)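 Plants were sown in alluvial soil held under 0.1–0.5 cm standing water and grown 14 days in a greenhouse at 25–30 °C. An emulsifiable formulation, water-diluted to the set dose, was then sprayed onto the foliage, and effects were scored three weeks later using previously defined criteria.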

blackgrass [2] = test: Test Example 4: herbicidal effect by soil treatment (Table 19, symbol J); assay type: in vivo, blackgrass (Alopecurus myosuroides); settings: for herbicidal effect rating, J: blackgrass: amount of applied herbicide 320 g/ha
Method in brief: as §1

lambsquarters [3] = test: Test Example 4: herbicidal effect by soil treatment (Table 19, symbol O); assay type: in vivo, lambsquarters (Chenopodium album); settings: for herbicidal effect rating, O: lambsquarters: amount of applied herbicide 320 g/ha
Method in brief: as §1

redroot pigweed = test: Test Example 4: herbicidal effect by soil treatment (Table 19, symbol N); assay type: in vivo, redroot pigweed (Amaranthus retroflexus); settings: for herbicidal effect rating, N: redroot pigweed: amount of applied herbicide 320 g/ha
Method in brief: as §1

windgrass = test: Test Example 5: herbicidal effect by foliage application, plastic box (Table 20, symbol L); assay type: in vivo, windgrass (Apera spica-venti); settings: foliage application, three weeks after application; for herbicidal effect grade, L: windgrass: 320 g/ha; for L: windgrass, herbicidal effect: AAH 320 g/ha
Method in brief: as §2

lambsquarters [4] = test: Test Example 5: herbicidal effect by foliage application, plastic box (Table 20, symbol O); assay type: in vivo, lambsquarters (Chenopodium album); settings: foliage application, three weeks after application; for herbicidal effect grade, O: lambsquarters: 320 g/ha; for O: lambsquarters, herbicidal effect: AAH 320 g/ha
Method in brief: as §2

blackgrass [5] = test: Test Example 5: herbicidal effect by foliage application, plastic box (Table 20, symbol J); assay type: in vivo, blackgrass (Alopecurus myosuroides); settings: foliage application, three weeks after application; for herbicidal effect grade, J: blackgrass: 320 g/ha; for J: blackgrass, herbicidal effect: AAH 320 g/ha
Method in brief: as §2

barnyard grass [6] = test: Test Example 3: herbicidal effect by foliage application, Wagner pot (Table 18, symbol H); assay type: in vivo, barnyard grass (Echinochloa crus-galli); settings: 320 g/ha
Method in brief: as §3

velvetleaf = test: Test Example 4: herbicidal effect by soil treatment (Table 19, symbol M); assay type: in vivo, velvetleaf (Abutilon theophrasti); settings: for herbicidal effect rating, M: velvetleaf: amount of applied herbicide 320 g/ha
Method in brief: as §1

chickweed = test: Test Example 4: herbicidal effect by soil treatment (Table 19, symbol P); assay type: in vivo, common chickweed (Stellaria media); settings: for herbicidal effect rating, P: chickweed: amount of applied herbicide 320 g/ha
Method in brief: as §1

Japanese bulrush = test: Test Example 1: herbicidal activity, application before weed generation under submerged conditions (Table 16, symbol B); assay type: in vivo, Japanese bulrush (Schoenoplectus juncoides); settings: 320 g/ha applied herbicide
Method in brief: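 Emulsion formulation, water-diluted to set dose, was put onto the flooded surface (4 cm depth, alluvial soil) the same day weeds were sown and 2.5-leaf rice transplanted. After 3 weeks at 25-30 °C under glass, each species was rated 0 (≤5% kill) to 5 (≥90% kill).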

| SMILES | herbicidal effect rating, F: southern crabgrass (southern crabgrass) | herbicidal effect grade, I: wild oat (wild oat) | herbicidal effect rating, H: barnyard grass (barnyard grass [1]) | herbicidal effect rating, G: green foxtail (green foxtail) | herbicidal effect rating, A: late watergrass (late watergrass) | herbicidal effect grade, K: Italian ryegrass (Italian ryegrass) | herbicidal effect on D (Chinese sprangletop), rating 0-5 (Chinese sprangletop) | herbicidal effect rating, J: blackgrass (blackgrass [2]) | herbicidal effect rating, O: lambsquarters (lambsquarters [3]) | herbicidal effect rating, N: redroot pigweed (redroot pigweed) | herbicidal effect grade, L: windgrass (windgrass) | herbicidal effect grade, O: lambsquarters (lambsquarters [4]) | herbicidal effect grade, J: blackgrass (blackgrass [5]) | herbicidal effect on H (barnyard grass), rating 0-5 (barnyard grass [6]) | herbicidal effect rating, M: velvetleaf (velvetleaf) | herbicidal effect rating, P: chickweed (chickweed) | Herbicidal effect on B: Japanese bulrush (grade 0-5) (Japanese bulrush) | I: wild oat, herbicidal effect (wild oat) | K: Italian ryegrass, herbicidal effect (Italian ryegrass) | L: windgrass, herbicidal effect (windgrass) | further results |
| --- | --- | --- | --- | --- | --- | --- | --- | --- | --- | --- | --- | --- | --- | --- | --- | --- | --- | --- | --- | --- | --- |
| CCCC(=O)Oc1c(C)nn(C)c(=O)c1-c1c(-c2ccc(SC)cc2)sc2ccccc12 [1-037] | 0 (Herbicidal rate of 5% or less (almost no effect)) | 1 (Herbicidal rate of 5% or more and less than 20%) | 2 (Herbicidal rate of 20% or more and less than 40%) | 5 (Herbicidal rate of 90% or more (almost completely withered)) | 0 (Herbicidal rate of 5% or less (almost no effect)) | 4 (Herbicidal rate of 70% or more and less than 90%) | 3 (Herbicidal rate of 40% or more and less than 70%) | 0 (Herbicidal rate of 5% or less (almost no effect)) | 3 (Herbicidal rate of 40% or more and less than 70%) | 5 (Herbicidal rate of 90% or more (almost completely withered)) | 0 (Herbicidal rate of 5% or less (almost no effect)) | 5 (Herbicidal rate of 90% or more (almost completely withered)) | 4 (Herbicidal rate of 70% or more and less than 90%) | 5 (Herbicidal rate of 90% or more (almost completely withered)) | 3 (Herbicidal rate of 40% or more and less than 70%) | 4 (Herbicidal rate of 70% or more and less than 90%) | 4 (Herbicidal rate of 70% or more and less than 90%) | – | – | – | – |
| COc1ccc(-c2sc3ccccc3c2-c2c(O)c(C)nn(C)c2=O)cc1OC [1-072] | 5 (Herbicidal rate of 90% or more (almost completely withered)) | 4 (Herbicidal rate of 70% or more and less than 90%) | 5 (Herbicidal rate of 90% or more (almost completely withered)) | 5 (Herbicidal rate of 90% or more (almost completely withered)) | 2 (Herbicidal rate of 20% or more and less than 40%) | 5 (Herbicidal rate of 90% or more (almost completely withered)) | 5 (Herbicidal rate of 90% or more (almost completely withered)) | 0 (Herbicidal rate of 5% or less (almost no effect)) | 5 (Herbicidal rate of 90% or more (almost completely withered)) | 5 (Herbicidal rate of 90% or more (almost completely withered)) | 1 (Herbicidal rate of 5% or more and less than 20%) | 5 (Herbicidal rate of 90% or more (almost completely withered)) | 3 (Herbicidal rate of 40% or more and less than 70%) | 5 (Herbicidal rate of 90% or more (almost completely withered)) | 5 (Herbicidal rate of 90% or more (almost completely withered)) | 4 (Herbicidal rate of 70% or more and less than 90%) | 3 (Herbicidal rate of 40% or more and less than 70%) | – | – | – | – |
| Cc1nn(C)c(=O)c(-c2c(-c3ccc4c(c3)OCO4)sc3ccccc23)c1O [1-087] | 2 (Herbicidal rate of 20% or more and less than 40%) | 1 (Herbicidal rate of 5% or more and less than 20%) | 4 (Herbicidal rate of 70% or more and less than 90%) | 5 (Herbicidal rate of 90% or more (almost completely withered)) | 2 (Herbicidal rate of 20% or more and less than 40%) | 3 (Herbicidal rate of 40% or more and less than 70%) | 3 (Herbicidal rate of 40% or more and less than 70%) | 0 (Herbicidal rate of 5% or less (almost no effect)) | 5 (Herbicidal rate of 90% or more (almost completely withered)) | 5 (Herbicidal rate of 90% or more (almost completely withered)) | 0 (Herbicidal rate of 5% or less (almost no effect)) | 3 (Herbicidal rate of 40% or more and less than 70%) | 3 (Herbicidal rate of 40% or more and less than 70%) | 4 (Herbicidal rate of 70% or more and less than 90%) | 0 (Herbicidal rate of 5% or less (almost no effect)) | 5 (Herbicidal rate of 90% or more (almost completely withered)) | 1 (Herbicidal rate of 5% or more and less than 20%) | – | – | – | – |
| C=CCOc1ccccc1-c1sc2ccccc2c1-c1c(O)c(C)nn(C)c1=O [1-110] | 3 (Herbicidal rate of 40% or more and less than 70%) | – | 3 (Herbicidal rate of 40% or more and less than 70%) | 3 (Herbicidal rate of 40% or more and less than 70%) | 3 (Herbicidal rate of 40% or more and less than 70%) | – | 3 (Herbicidal rate of 40% or more and less than 70%) | 2 (Herbicidal rate of 20% or more and less than 40%) | 0 (Herbicidal rate of 5% or less (almost no effect)) | 0 (Herbicidal rate of 5% or less (almost no effect)) | – | – | – | 4 (Herbicidal rate of 70% or more and less than 90%) | 1 (Herbicidal rate of 5% or more and less than 20%) | 3 (Herbicidal rate of 40% or more and less than 70%) | 0 (Herbicidal rate of 5% or less (almost no effect)) | 3 (Herbicidal rate of 40% or more and less than 70%) | 0 (Herbicidal rate of 5% or less (almost no effect)) | 3 (Herbicidal rate of 40% or more and less than 70%) | O: lambsquarters, herbicidal effect (lambsquarters [4]): 0 (Herbicidal rate of 5% or less (almost no effect)); J: blackgrass, herbicidal effect (blackgrass [5]): 4 (Herbicidal rate of 70% or more and less than 90%) |
| CCCC(=O)Oc1c(C)nn(C)c(=O)c1-c1c(-c2ccc(C(F)(F)F)cc2)sc2ccccc12 [1-130] | – | – | – | – | 2 (Herbicidal rate of 20% or more and less than 40%) | – | 3 (Herbicidal rate of 40% or more and less than 70%) | – | – | – | – | – | – | 4 (Herbicidal rate of 70% or more and less than 90%) | – | – | 3 (Herbicidal rate of 40% or more and less than 70%) | 0 (Herbicidal rate of 5% or less (almost no effect)) | 5 (Herbicidal rate of 90% or more (almost completely withered)) | 3 (Herbicidal rate of 40% or more and less than 70%) | F: southern crabgrass, herbicidal effect rating (southern crabgrass; AAH 320 g/ha): 1 (Herbicidal rate of 5% or more and less than 20%); H: barnyard grass, herbicidal effect rating (barnyard grass [1]; AAH 320 g/ha): 3 (Herbicidal rate of 40% or more and less than 70%); G: green foxtail, herbicidal effect rating (green foxtail; AAH 320 g/ha): 3 (Herbicidal rate of 40% or more and less than 70%); J: blackgrass, herbicidal effect rating (blackgrass [2]; AAH 320 g/ha): 0 (Herbicidal rate of 5% or less (almost no effect)); O: lambsquarters, herbicidal effect rating (lambsquarters [3]; AAH 320 g/ha): 4 (Herbicidal rate of 70% or more and less than 90%); N: redroot pigweed, herbicidal effect rating (redroot pigweed; AAH 320 g/ha): 3 (Herbicidal rate of 40% or more and less than 70%); O: lambsquarters, herbicidal effect (lambsquarters [4]): 4 (Herbicidal rate of 70% or more and less than 90%); J: blackgrass, herbicidal effect (blackgrass [5]): 0 (Herbicidal rate of 5% or less (almost no effect)); M: velvetleaf, herbicidal effect rating (velvetleaf; AAH 320 g/ha): 1 (Herbicidal rate of 5% or more and less than 20%); P: chickweed, herbicidal effect rating (chickweed; AAH 320 g/ha): 3 (Herbicidal rate of 40% or more and less than 70%) |
